Measurements: patent US6294580A, “Substituted 4-hydroxy-phenylalcanoic acid derivatives with agonist activity to PPAR-gamma” (Glaxo Wellcome Inc., priority 1996, dated 2001)
Counter-ions that a name gives are not always drawn. Like-named read-outs stand apart in the source and are kept apart here.

Key:
PPARg = experiment: PPARgamma Transient Cotransfection Assay; type: cell-based
db/db mice = experiment: In vivo Evaluation in db/db mice (plasma glucose); design: species or system mouse; conditions: 5 mg/kg b.i.d. oral gavage, fourteen days
Procedure: In vivo Evaluation: Experiments were performed on db/db mice (n=40-48), approximately 60 day old, divided into either vehicle or treatment groups. From each group 8-12 animals were placed in Nalgene metabolic cages, 2 per cage. The remaining animals are housed in standard rack cages; 3-4 per cage. Test compounds were dissolved in an appropriate vehicle. Animals were administered either the vehicle or the compound (dose=5 mg/kg) delivered at 5 ml/kg, b.i.d., via oral gavage for fourteen days. Daily measurements were made of mice housed in metabolic cages to determine consumption of food and water, urine output and urinary glucose excretion and changes in body weight. Animals housed in rack cages were weighed approximately every four days to monitor changes in body weight. An equal number of animals from each group were sampled on days 0, 4, 7 and 14. Mice were anesthetized with isolflurane, blood samples were obtained by cardiac puncture and analyzed to determine plasma levels of glucose, insulin, total cholesterol, triglycerides and non-esterified free fatty acids (NEFA's).

hPPARgamma = molecular target: T1, hPPARgamma (Homo sapiens, UniProt P37231); experiment: hPPARgamma Ligand Binding Assay; conditions: competition with [3H]-BRL 49,653, room temperature 2 hrs
T1 construct: 10x-histidine tag (N); made in house; host or cells: E. coli
T1 sequence (P37231 195-475 isoform P37231-2): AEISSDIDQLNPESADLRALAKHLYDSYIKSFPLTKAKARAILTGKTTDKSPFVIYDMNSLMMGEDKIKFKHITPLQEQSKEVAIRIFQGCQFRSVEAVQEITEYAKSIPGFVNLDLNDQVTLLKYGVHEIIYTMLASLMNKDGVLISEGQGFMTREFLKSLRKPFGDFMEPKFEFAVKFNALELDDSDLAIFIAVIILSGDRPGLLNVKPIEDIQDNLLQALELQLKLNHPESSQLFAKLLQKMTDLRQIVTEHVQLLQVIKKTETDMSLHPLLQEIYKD
Procedure: 2. hPPARgamma Ligand Binding Assay: The PPAR-gamma ligand binding domain (amino acids 195-475) was expressed with an N-terminal 10×-histidinetag in E. coli cells. The cells were lysed and receptor was purified by means of the epitope tag. The stock solution of protein was diluted to 200 nM in assay buffer (50 mM Tris, 50 mM KCl, pH 8 20 mM CHAPS, 2 mM EDTA 10 mM DTT (Fresh)) just before use.
Test compounds were prepared as 6 mM stock solutions in DMSO. […] The right-most column of wells was used for controls. […] Plates were incubated at room temperature for 2 hrs, and then cooled on ice for 30 minutes. 50 uL samples from each well of a single test plate were simultaneously loaded onto an equilibrated AGTC 96 well gel filtration block (Advanced Genetics Technology Corp.) using a Zymak Rapidplate automated pipettor. The block was placed on top of a clean microtiter plate and centrifuged @1,100×g for 4 min. 200 uL of scintillation fluid was added to each well, the plates were sealed and allowed to equilibrate for at least 4 hours before counting in a Wallac 1250 Microbeta counter.
Ki's were determined from a nonlinear least squares fit of the data to a simple competitive binding model.

pre-adipocyte cell lines = conditions: treatment of pre-adipocyte cell lines; cited from earlier work
human patients = conditions: patients with impaired glucose tolerance, NIDDM; cited from earlier work
[1] = read-out: PPARg EC50, CAT reporter
[2] = CAT reporter, read-out: PPARg EC50

For `CN(CCOc1ccc(C[C@H](Nc2ccccc2C(=O)c2ccccc2)C(=O)O)cc1)c1ccccn1` [Example 12, 2(S)-(2-benzoyl-phenylamino)-3-{4-[2-(methyl-pyridin-2-yl-amino)-ethoxy]-phenyl}-propionic acid], the EC50 (PPARg; [1]) was 5 nM and the “% lowering of plasma glucose” value (db/db mice) was 58%.

With `Cc1oc(-c2ccccc2)nc1CCOc1ccc(C[C@H](Nc2ccccc2C(=O)c2ccccc2)C(=O)O)cc1` [Example 29, 2(S)-(2-Benzoyl-phenylamino)-3-{4-[2-(5-methyl-2-phenyl-oxazol-4-yl)ethoxy]-phenyl}-propionic acid] the EC50 (PPARg; [1]) was 0.2 nM and the “% lowering of plasma glucose” value (db/db mice) was 70%.

For `CN(CCOc1ccc(CC(Nc2ccccc2C(=O)c2ccccc2)C(=O)O)cc1)c1nc2ccccc2o1` (stereo not drawn) [Example 16, 3-{4-[2-(benzoxazol-2-yl-methyl-amino)-ethoxy]-phenyl}-2-(2-benzoyl-phenylamino)-propionic acid], the Ki (hPPARgamma; PPARg Ki) was 20 nM, the EC50 (PPARg; [2]) was 1 nM and the “% lowering of plasma glucose” value (db/db mice) was 63%.

In the case of `CCc1ccc(CCOc2ccc(CC3SC(=O)NC3=O)cc2)nc1` (stereo not drawn) [pioglitazone], the “expression of adipocyte-specific genes aP2 and adipsin and glucose transporter proteins GLUT-1 and GLUT-4” value (pre-adipocyte cell lines) is listed as “increased expression of the adipocyte-specific genes aP2 and adipsin as well as the glucose transporter proteins GLUT-1 and GLUT-4”.

In the case of `Cc1c(C)c2c(c(C)c1O)CCC(C)(COc1ccc(CC3SC(=O)NC3=O)cc1)O2` (stereo not drawn) [troglitazone], the “effects in human patients (insulin sensitivity, lipid and insulin levels)” value (human patients) is given as “these same beneficial effects in human patients”.

Work on `CN(CCOc1ccc(CC(Nc2ccccc2C(=O)c2cccs2)C(=O)O)cc1)c1nc2ccccc2o1` (stereo not drawn) [Example 74] yielded a Ki (hPPARgamma; PPARg Ki) of 800 nM and an EC50 (PPARg; [2]) of 55 nM.

With `Cc1oc(-c2ccccc2)nc1CCOc1ccc(CC(Nc2ccccc2C(=O)c2cccc(CN(C)C)c2)C(=O)O)cc1` (stereo not drawn) [Example 87, 2-[2-(3-dimethylaminomethyl-benzoyl)-phenylamino]-3-{4-[2-(5-methyl-2-phenyl-oxazol-4-yl)-ethoxy]-phenyl}-propionic acid hydrochloride] the Ki (hPPARgamma; read-out: PPARg Ki) was 1160 nM and the EC50 (PPARg; [2]) was 465 nM.

For `COC(=O)Nc1cccc(C(=O)c2ccccc2NC(Cc2ccc(OCCc3nc(-c4ccccc4)oc3C)cc2)C(=O)O)c1` (stereo not drawn) [Example 96, 2-[2-(3-methoxycarbonylamino-benzoyl)-phenylamino]-3-{4-[2-(5-methyl-2-phenyl-oxazol-4-yl)-ethoxy]-phenyl}-propionic acid], the Ki (hPPARgamma; PPARg Ki) was 280 nM and the EC50 (PPARg; [2]) was 300 nM.

`Cc1ccc(NC(Cc2ccc(OCCN(C)c3nc4ccccc4o3)cc2)C(=O)O)c(C(=O)c2ccccc2)c1` (stereo not drawn) [Example 19, 3-{4-[2-(benzoxazol-2-yl-methyl-amino)-ethoxy]-phenyl}-2-(2-benzoyl-4-methyl-phenylamino)-propionic acid] showed a Ki (hPPARgamma; PPARg Ki) of 185 nM and an EC50 (PPARg; [2]) of 65 nM.

Work on `CN(CCOc1ccc(CC(Nc2ccccc2C(=O)C2CCCCC2)C(=O)O)cc1)c1nc2ccccc2o1` (stereo not drawn) [Example 24, 3-{4-[2-(Benzoxazol-2-yl-methyl-amino)-ethoxy]-phenyl}-2-(2-cyclohexanecarbonyl-phenylamino)-propionic acid] yielded a Ki (hPPARgamma; PPARg Ki) of 30 nM and an EC50 (PPARg; [2]) of 1 nM.

In the case of `COC(=O)c1ccccc1N[C@@H](Cc1ccc(OCCc2nc(-c3ccccc3)sc2C)cc1)C(=O)O` [Example 45, 2-(1-Carboxy-2-{4-[2-(5-methyl-2-phenyl-thiazol-4-yl)-ethoxy]-phenyl}-ethylamino)-benzoic acid methyl ester], the Ki (hPPARgamma; PPARg Ki) is reported as 30 nM and the EC50 (PPARg; [2]) is reported as 1 nM.
